# According to patent publication US20160280641A1, “Method for refining 2-nito-4-methylsulfonyl benzoic acid and intermediate thereof” (priority 2013, published 2016):
# Assay: Ames test of mesotrione products
# Type: cell-based
# Details: mesotrione products made from the fine 2-nitro-4-methylsulfonyl benzoic acids obtained by different processes
# Protocol: The fine 2-nitro-4-methylsulfonyl benzoic acids obtained by different processes are transformed into mesotrione products, and activities thereof are tested in Ames tests, wherein Ames responses are negative.
smiles,measurement,value
"CS(=O)(=O)c1ccc(C(=O)C2C(=O)CCCC2=O)c([N+](=O)[O-])c1 [mesotrione, 2-(4-methanesulfonyl-2-nitrobenzoyl)-1,3-cyclohexanedione]",Ames responses,negative
